This note sets out measurements from PubChem BioAssay AID489033 (Sanford-Burnham Center for Chemical Genomics, 2010).

Calls of active or inactive are those of the source. How the calls were made is not given here.

For the assay, the system named is 697B B-cell line, NF-kB luciferase reporter luminescence. The assay is described as follows: NF-kB reporter inhibition in B cells, dose response, selectivity assay for T-cell antigen receptor NF-kB inhibitors, 697B cells, luminescence (AID 489033).
The IC50 is the midpoint of a concentration-inhibition curve. Consider `CCn1c2ccccc2c2cc(NC(=O)c3cc(OC)cc(OC)c3)ccc21`, for which the IC50 was > 80 µM (inactive).
To `C(=N\Nc1nc2ccccc2s1)/c1ccccn1` belongs 0.39 µM; to `CC1(C)Cc2c(sc(NC(=O)COc3cccc4ccccc34)c2C#N)C(C)(C)N1`, 8.2 µM.
Consider `COc1cccc(OC)c1C1=NCC(=O)Nc2c1oc1ccc(Br)cc21`, for which the IC50 is 56.8 µM (inactive).
Then `Cc1cccc(OCCNC(=O)c2ccc(Cl)c(S(=O)(=O)NCc3cccnc3)c2)c1`, with > 80 µM (inactive); and `Cc1ccc(Nc2nc(-c3c(C)nc4ncccn34)cs2)cc1`, with > 80 µM (inactive); and `CCCCCCCCCCn1ccc(=N)cc1`, with 11.7 µM.
Then `COc1ccc([N+](=O)[O-])cc1Nc1c2ccccc2nc2ccccc12`, with > 80 µM (inactive).
To `COc1ccc(N(C(=O)c2ccccc2C)S(=O)(=O)c2cccs2)cc1` belongs > 80 µM (inactive); to `COC(=O)c1cnc(Oc2ccc(NC(=O)NC(=O)c3c(F)cccc3Cl)cc2)cc1C(F)(F)F`, > 80 µM (inactive); to `CC(C)c1oc(=O)cc2c1[C@@H](O)[C@H]1OC(=O)[C@@]3(C)C[C@@H](O)[C@@H](O)[C@@]2(C)C13` (stereo partly specified), 7.2 µM.
Regarding `CC(C)(C)c1cc(C=C(C#N)C#N)cc(C(C)(C)C)c1O`, the IC50 is > 80 µM (inactive).
Regarding `Cc1noc(C)c1COc1cccc(C(=O)OCC(=O)N2CC(=O)Nc3ccccc32)c1`, the IC50 is > 80 µM (inactive).
Consider `CCOCCCNC(=O)c1ccc2c(c1)N=C(CC)c1cc(Br)ccc1S2`, for which the IC50 is > 80 µM (inactive).
Then `CC(C)(C)c1ccc(C(=O)O/N=C(\N)c2ccccc2)cc1`, with 0.17 µM; and `O=C(COc1ccccc1-c1ccccc1)N/N=C/c1cccc2ccccc12`, with > 80 µM (inactive).
To `COc1ccc(OC)c(CCNC(=O)Cn2nc(C)c3c(C)n(-c4ccc(C)cc4)nc3c2=O)c1` belongs > 80 µM (inactive); to `CCOC(=O)COc1cccc2c(=O)n(CC(=O)NCc3ccccc3)ccc12`, > 80 µM (inactive).
For `CCOC(=O)C(C)Oc1cccc2c(=O)n(CC(=O)NCc3ccccc3)ccc12` (stereo unspecified), the IC50 is > 80 µM (inactive).
Turning to `COc1ccc(Nc2nc3cc(C)ccc3cc2C#N)c(OC)c1`, the IC50 is > 80 µM (inactive).
Then `CCOC(=O)c1[nH]c(C)c(C(=O)c2cc(F)ccc2F)c1C`, with > 80 µM (inactive); and `O=C(Nc1ccncc1)c1ccc(Cl)c(S(=O)(=O)N2CCc3ccccc32)c1`, with 61.9 µM (inactive); and `CCCCCCCn1c2c(c(=N)c3ccccc31)CCC2`, with 3.7 µM.
To `Nc1nc2n[nH]nc2c(=O)[nH]1` belongs 2.56 µM.
For `Cc1c(C(=O)N/N=C/c2c(O)ccc3ccccc23)nnn1-c1nonc1N`, the IC50 was 34.7 µM (inactive).
To `Cc1ccc(S(=O)(=O)NCc2ccncc2)cc1C` belongs > 80 µM (inactive); to `COc1ccc(OC)c(-c2nnc3n2N=C(c2ccc(OC)c(OC4CCCC4)c2)CS3)c1`, 35.3 µM (inactive); to `CC(=O)O[C@H]1C(=O)[C@@]2(C)C([C@H](OC(=O)c3ccccc3)[C@]3(O)C[C@H](OC(=O)[C@H](O)[C@@H](NC(=O)Cc4ccccc4)c4ccccc4)C(C)=C1C3(C)C)[C@]1(OC(C)=O)CO[C@@H]1C[C@@H]2O` (stereo partly specified), > 80 µM (inactive).
For the molecule `CC(Oc1ccc(Cl)cc1Cl)c1nc(-c2ccc(NC(=O)c3ccncc3)cc2)no1` (stereo unspecified), the IC50 was 29.5 µM (inactive).
Then `COc1cc(/C=C2/SC(=Nc3ccc(O)cc3)NC2=O)ccc1O`, with 23.4 µM (inactive).
Then `O=C1CC(c2cc(Br)ccc2F)c2cc3c(cc2N1)CCC3` (stereo unspecified), with > 80 µM (inactive).
To `COc1cccc(/C=N/NC(=O)c2[nH]nc3c2CCc2ccccc2-3)c1O` belongs 61.7 µM (inactive); to `COc1ccc(/C=C2/C(=O)OCc3cc(OC)c(OC)cc32)cc1`, > 80 µM (inactive).
As to `N=c1ccn(CC(=O)c2ccc(-c3ccccc3)cc2)cc1`, the IC50 was 19.2 µM.
Then `CC(=O)O[C@@]12CO[C@@H]1C[C@@H](O)[C@@]1(C)C(=O)[C@H](O)C3=C(C)[C@@H](OC(=O)[C@H](O)[C@@H](NC(=O)c4ccccc4)c4ccccc4)C[C@@](O)([C@@H](OC(=O)c4ccccc4)C12)C3(C)C` (stereo partly specified), with > 80 µM (inactive); and `COc1ccc(/C=N/NC(=O)c2[nH]c3ccc(Br)cc3c2-c2ccccc2)cc1`, with > 80 µM (inactive).
Regarding `CCOC(=O)c1[nH]c2c(c1C)C(=O)CC(c1ccc(F)cc1)C2` (stereo unspecified), the IC50 is > 80 µM (inactive).
On to `CCN1C=CC(=C2C(=O)c3ccccc3C2=O)C=C1`, for which the IC50 is 1.13 µM.
In the case of `CCOc1ccccc1N1CC(O)=C(c2nc3ccccc3s2)C1=N`, the IC50 is 61 µM (inactive).
To `C=CCn1c(SCc2c(C)noc2C)nc2ccccc2c1=O` belongs > 80 µM (inactive).
Then `Cn1ncnc2c(=O)n(C)c(=O)nc1-2`, with 2.85 µM; and `Cc1ccc(C(=O)O/N=C(\N)c2ccccn2)c(C)c1`, with 0.85 µM.
To `CCCCCCCCCCCCCCCC[n+]1ccc(/C=N/O)cc1` belongs 13 µM; to `CCOc1ccccc1NC(=O)Cn1nnc(C(=O)NCc2ccco2)c1N`, > 80 µM (inactive).
In the case of `CCN(CC)c1ccc(/C=N/NC(=O)c2nnn(-c3nonc3N)c2C(C)C)c(O)c1`, the IC50 is 1.5 µM.
To `Cc1csc2sc(-c3ccnc(SCC(=O)NCc4ccccc4)n3)c(C)c12` belongs > 80 µM (inactive); to `COc1cc2c(c(OC)c1OC)-c1ccc(OC)c(=O)cc1[C@@H](NC(C)=O)CC2`, > 80 µM (inactive).
Then `c1ccc(-c2cccc(-c3ccccn3)n2)nc1`, with 6.4 µM; and `COc1cc(-c2noc(C)c2/C=C/c2cccc([N+](=O)[O-])c2)cc(OC)c1OC`, with > 80 µM (inactive).
Regarding `C=C(C)COc1ccc(-c2[nH]ncc2-c2ccc(OC)c(OC)c2)c(O)c1`, the IC50 was 41.7 µM (inactive).
To `O=C1/C(=C/c2ccc(N3CCOCC3)o2)SC(=Nc2ccccc2)N1CCc1c[nH]c2ccccc12` belongs 12.8 µM; to `COc1cccc(CN(C)C(=O)c2ccc(OCC(=O)Nc3cccc(C(F)(F)F)c3)c(OC)c2)c1`, 65.7 µM (inactive); to `CCN(CC)S(=O)(=O)c1ccc(NC(=O)c2ccc(CN3CCOCC3)cc2)cc1`, 10.1 µM.
`CC(=O)Nc1ccc(S(=O)(=O)N2CCSc3ccccc32)cc1`: the IC50 was > 80 µM (inactive).
Then `CCOC(=O)c1[nH]c2c(c1C)C(=O)CC(c1ccco1)C2` (stereo unspecified), with > 80 µM (inactive).
Take `O=C(c1ccc(CS(=O)c2ccccc2Cl)o1)N1CCN(c2ccccn2)CC1` (stereo unspecified): the IC50 is > 80 µM (inactive).
To `COc1ccc(C2=Nn3c([n+](C)c4ccccc43)SC2)cc1` belongs 31 µM (inactive).
To `COC(=O)C1CN(C#N)N(c2ccc(Cl)cc2)C12c1ccccc1-c1ccccc12` (stereo unspecified) belongs 3.58 µM.
To `Cc1ccc(NC(=O)c2cc3ccccc3oc2=O)cc1S(=O)(=O)N(C)C` belongs less than 0.16 µM.
Turning to `c1ccc(-c2noc(-c3ccc4ccccc4c3)n2)nc1`, the IC50 was 0.73 µM.
To `Cc1ccc(C(=O)c2cc([N+](=O)[O-])ccc2N2CCOCC2)cc1C` belongs > 80 µM (inactive).
